Measurements reported in article PMC7101356, “Cross-site and cross-platform variability of automated patch clamp assessments of drug effects on human cardiac currents in recombinant cells” (Scientific Reports, 2020).

What was measured:
[1] = based on CiPA evaluations; cited from earlier work
[2] = molecular target: T1, late hNav1.5 (Homo sapiens, UniProt Q14524); assay: Automated patch clamp, late hNav1.5 current block (ATX-II activated); format: cell-based; conditions: for Late hNav1.5 Na+ current inhibition, Mean: 1.00E-05 mol/L
T1 construct: expressed in transfected cells; host or cells: HEK293 or CHO, depending on site
Description: However, all external solutions contained 30 nM ATX-II in order to activate late current. Late current was measured at its maximum during the repolarizing ramp.
Concentration-response relationships for each test article were independently investigated, i.e., each cell received only one test article, typically evaluating multiple concentrations in a cumulative fashion (lowest to highest concentrations). However, some platforms tested only one concentration per well. Each concentration response was based on a minimum of four concentrations, with a minimum of three wells used for each concentration. In cases of high variability, more cells per concentration were recorded. Prior to drug addition, cells received an addition of vehicle to measure non-test article-related effects such as addition artifacts. At the end of the experiment, a supramaximal concentration of a known inhibitory reference compound was applied to assess leak current and appropriate responsiveness of the test system.
The steady state current at each concentration was used to determine the concentration-response relationships. Mean concentration-response data were fitted to a standard sigmoidal four-parameter logistic equation (GraphPad Prism 7; GraphPad Inc., La Jolla, CA) of the form: Y=Bottom+(Top−Bottom)/(1+10^∧(LogIC50−X)∗HillSlope) where Y is the current inhibition (in % of pre-drug control), X is the logarithm of drug concentration, and IC50 is the drug concentration producing half-maximal current inhibition. Curve fitting was performed using the following constraints: Top = 100%, Bottom = 0%, Hill Slope <2. No curve fitting was performed in cases with an obvious lack of a concentration-dependent current inhibition and/or small effect size (approximately ≤20%).

[3] = molecular target: T2, peak hNav1.5 (Homo sapiens, UniProt Q14524); assay: Automated patch clamp, peak hNav1.5 current block; format: cell-based; conditions: for nH (=constant), peak hNav1.5 Na+ current inhibition: Hill slope held constant in fit
T2 construct: expressed in transfected cells; host or cells: HEK293 or CHO, depending on site

[4] = molecular target: hCav1.2 (Homo sapiens, UniProt Q13936); assay: Automated patch clamp, hCav1.2 current block; conditions: for IC50: log IC50, half-maximal inhibitory concentration
Sequence of hCav1.2 (Q13936 whole entry): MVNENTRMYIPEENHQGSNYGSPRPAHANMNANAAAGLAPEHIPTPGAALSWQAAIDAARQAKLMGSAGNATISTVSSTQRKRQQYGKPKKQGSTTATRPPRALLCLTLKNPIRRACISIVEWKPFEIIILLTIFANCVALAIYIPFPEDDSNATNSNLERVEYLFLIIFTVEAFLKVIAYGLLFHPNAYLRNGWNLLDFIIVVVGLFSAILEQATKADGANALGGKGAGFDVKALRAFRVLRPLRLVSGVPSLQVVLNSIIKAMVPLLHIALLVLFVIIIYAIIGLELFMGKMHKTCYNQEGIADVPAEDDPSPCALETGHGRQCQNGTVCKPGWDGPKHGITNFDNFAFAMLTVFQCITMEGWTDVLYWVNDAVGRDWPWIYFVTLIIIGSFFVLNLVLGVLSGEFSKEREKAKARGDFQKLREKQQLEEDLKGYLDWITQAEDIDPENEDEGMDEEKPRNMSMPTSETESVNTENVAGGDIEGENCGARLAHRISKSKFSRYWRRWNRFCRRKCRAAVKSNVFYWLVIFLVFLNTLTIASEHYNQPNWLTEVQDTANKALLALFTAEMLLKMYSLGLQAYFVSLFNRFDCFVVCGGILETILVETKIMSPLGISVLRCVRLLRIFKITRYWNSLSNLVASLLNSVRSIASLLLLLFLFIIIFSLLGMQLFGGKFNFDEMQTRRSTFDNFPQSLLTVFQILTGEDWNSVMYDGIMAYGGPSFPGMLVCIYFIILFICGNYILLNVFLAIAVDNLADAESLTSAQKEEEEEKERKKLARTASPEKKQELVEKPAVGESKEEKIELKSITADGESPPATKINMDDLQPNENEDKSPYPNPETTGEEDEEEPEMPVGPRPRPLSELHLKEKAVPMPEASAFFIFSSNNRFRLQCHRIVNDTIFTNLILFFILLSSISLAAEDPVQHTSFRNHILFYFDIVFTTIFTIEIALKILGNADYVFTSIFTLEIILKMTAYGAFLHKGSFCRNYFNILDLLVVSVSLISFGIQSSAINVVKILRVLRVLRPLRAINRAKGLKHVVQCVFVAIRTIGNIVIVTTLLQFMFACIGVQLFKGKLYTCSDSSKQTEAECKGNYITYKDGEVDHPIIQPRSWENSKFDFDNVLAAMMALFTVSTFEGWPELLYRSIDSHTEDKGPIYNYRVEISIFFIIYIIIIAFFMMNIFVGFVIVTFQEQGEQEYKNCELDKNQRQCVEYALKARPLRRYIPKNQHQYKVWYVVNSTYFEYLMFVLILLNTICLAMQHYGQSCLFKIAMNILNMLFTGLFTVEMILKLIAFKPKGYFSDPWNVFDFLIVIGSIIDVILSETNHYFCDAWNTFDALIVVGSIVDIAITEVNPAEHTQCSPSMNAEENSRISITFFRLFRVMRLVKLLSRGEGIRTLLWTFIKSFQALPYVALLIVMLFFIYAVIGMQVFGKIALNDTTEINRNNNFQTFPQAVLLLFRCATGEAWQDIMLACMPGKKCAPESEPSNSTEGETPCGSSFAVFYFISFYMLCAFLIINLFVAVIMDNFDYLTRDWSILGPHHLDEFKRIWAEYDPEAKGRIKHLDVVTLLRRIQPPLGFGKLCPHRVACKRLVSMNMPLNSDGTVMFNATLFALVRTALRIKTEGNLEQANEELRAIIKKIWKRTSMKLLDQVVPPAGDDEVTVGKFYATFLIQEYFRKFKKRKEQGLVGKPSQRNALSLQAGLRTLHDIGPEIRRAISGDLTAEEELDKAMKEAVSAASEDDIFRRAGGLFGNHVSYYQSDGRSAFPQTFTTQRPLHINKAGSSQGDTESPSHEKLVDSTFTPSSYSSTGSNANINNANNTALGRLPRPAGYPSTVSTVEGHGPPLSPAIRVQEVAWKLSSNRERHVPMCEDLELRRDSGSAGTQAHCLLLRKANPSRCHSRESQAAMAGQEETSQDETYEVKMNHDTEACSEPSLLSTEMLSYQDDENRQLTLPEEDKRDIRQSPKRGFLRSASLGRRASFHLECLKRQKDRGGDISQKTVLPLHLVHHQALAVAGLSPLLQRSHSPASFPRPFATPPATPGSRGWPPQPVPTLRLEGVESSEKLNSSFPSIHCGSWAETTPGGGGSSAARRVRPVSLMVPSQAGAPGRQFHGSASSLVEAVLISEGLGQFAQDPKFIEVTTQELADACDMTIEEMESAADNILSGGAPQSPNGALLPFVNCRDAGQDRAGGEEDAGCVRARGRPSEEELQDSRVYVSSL
Sequence of hCav1.2 (Q08289 whole entry partner): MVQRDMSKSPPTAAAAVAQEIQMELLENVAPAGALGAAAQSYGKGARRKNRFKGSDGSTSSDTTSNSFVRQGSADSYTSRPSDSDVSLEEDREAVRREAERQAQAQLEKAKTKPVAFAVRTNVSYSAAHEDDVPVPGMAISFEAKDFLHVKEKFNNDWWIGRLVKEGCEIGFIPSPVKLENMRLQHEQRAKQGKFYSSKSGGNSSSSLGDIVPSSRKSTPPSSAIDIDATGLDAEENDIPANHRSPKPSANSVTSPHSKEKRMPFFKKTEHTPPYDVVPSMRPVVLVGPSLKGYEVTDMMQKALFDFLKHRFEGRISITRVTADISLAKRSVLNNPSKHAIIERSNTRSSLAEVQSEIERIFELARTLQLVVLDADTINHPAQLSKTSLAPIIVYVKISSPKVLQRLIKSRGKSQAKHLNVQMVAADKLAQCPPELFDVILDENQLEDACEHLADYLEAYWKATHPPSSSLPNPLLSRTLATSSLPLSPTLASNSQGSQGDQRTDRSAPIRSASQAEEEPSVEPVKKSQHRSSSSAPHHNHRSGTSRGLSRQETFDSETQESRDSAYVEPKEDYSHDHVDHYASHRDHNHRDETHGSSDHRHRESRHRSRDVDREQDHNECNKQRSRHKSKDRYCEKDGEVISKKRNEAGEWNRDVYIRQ
Sequence of hCav1.2 (P54289 25-956 partner limits assumed): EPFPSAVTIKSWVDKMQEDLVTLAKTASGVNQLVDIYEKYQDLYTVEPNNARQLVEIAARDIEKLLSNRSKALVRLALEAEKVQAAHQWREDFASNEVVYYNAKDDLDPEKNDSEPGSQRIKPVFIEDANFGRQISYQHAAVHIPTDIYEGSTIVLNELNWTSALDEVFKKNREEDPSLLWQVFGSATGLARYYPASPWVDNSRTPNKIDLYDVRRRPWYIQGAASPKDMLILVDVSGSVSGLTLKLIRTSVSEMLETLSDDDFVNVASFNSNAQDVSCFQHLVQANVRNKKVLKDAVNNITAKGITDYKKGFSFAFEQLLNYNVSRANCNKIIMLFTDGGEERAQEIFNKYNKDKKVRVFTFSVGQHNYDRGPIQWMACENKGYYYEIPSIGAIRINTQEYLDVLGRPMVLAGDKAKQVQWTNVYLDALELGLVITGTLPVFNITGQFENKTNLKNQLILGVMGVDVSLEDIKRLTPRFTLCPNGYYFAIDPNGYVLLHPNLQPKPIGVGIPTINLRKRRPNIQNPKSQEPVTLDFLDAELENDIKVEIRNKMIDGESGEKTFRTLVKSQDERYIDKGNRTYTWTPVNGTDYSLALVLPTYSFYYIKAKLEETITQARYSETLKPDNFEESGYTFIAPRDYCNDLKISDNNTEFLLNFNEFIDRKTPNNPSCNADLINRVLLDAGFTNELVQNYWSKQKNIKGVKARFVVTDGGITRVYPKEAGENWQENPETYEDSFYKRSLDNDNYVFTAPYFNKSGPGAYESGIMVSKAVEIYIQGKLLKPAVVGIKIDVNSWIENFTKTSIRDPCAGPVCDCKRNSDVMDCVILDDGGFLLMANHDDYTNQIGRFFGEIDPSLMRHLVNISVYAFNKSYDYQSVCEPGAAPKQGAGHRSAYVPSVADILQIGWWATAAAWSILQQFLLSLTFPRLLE
Sequence of hCav1.2 (P54289 957-1103 partner limits assumed): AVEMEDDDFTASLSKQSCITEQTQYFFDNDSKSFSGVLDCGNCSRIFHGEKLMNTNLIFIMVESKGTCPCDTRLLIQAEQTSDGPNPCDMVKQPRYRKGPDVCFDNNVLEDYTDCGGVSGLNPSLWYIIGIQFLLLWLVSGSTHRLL

[5] = site s02_p2, corrected for rundown

Which “TdP Risk Category” value [1] does the source give for `CN(C)CCCN1c2ccccc2Sc2ccc(Cl)cc21` [cpz, chlorpromazine] here?
Its value is “Intermediate”.

Which “TdP Risk Category” value [1] does the source give for `CN(CCOc1ccc(NS(C)(=O)=O)cc1)CCc1ccc(NS(C)(=O)=O)cc1` [dof, dofetilide] here?
Its value is “High”.

Which “TdP Risk Category” value [1] does the source give for `C=C[C@H]1C[N@@]2CC[C@H]1C[C@@H]2[C@@H](O)c1ccnc2ccc(OC)cc12` [qui, quinidine] here?
Its value is “High”.

What about the “nH, Hill slope, late hNav1.5 inhibition” value ([2]; site_platform s06_p4) of the same compound?
Its value is 0.91.

And the “Late hNav1.5 Na+ current inhibition, Mean” value ([2]; site_platform s06_p4)?
The value was 78.1%.

And the “nH, Hill slope, late hNav1.5 inhibition” value ([2]; site_platform s07_p6)?
Its value is 0.74.

What about the “Late hNav1.5 Na+ current inhibition, Mean” value ([2]; site_platform s07_p6) of the same compound?
The value was 46.2%.

And the “nH, Hill slope, late hNav1.5 inhibition” value ([2]; site_platform s13_p2)?
Its value is 0.63.

And the “nH, Hill slope, late hNav1.5 inhibition” value ([2]; site_platform s14_p1)?
Its value is 2.00.

What about the “Late hNav1.5 Na+ current inhibition, Mean” value ([2]; site_platform s14_p1) of the same compound?
Its value is 68.8%.

And the “Peak hNav1.5 Na+ current inhibition, Mean” value ([3]; site_platform s01_p1, 1.00E-05 mol/L)?
Its value is 72.9%.

And the “Peak hNav1.5 Na+ current inhibition, Mean” value ([3]; site_platform s01_p1, 1.00E-07 mol/L)?
The value was 51.7%.

And the “nH (=constant), peak hNav1.5 Na+ current inhibition” value ([3]; site_platform s01_p1)?
Its value is 1.

What about the “nH (=constant), peak hNav1.5 Na+ current inhibition” value ([3]; site_platform s02_p2) of the same compound?
The value was 1.

What about the “nH (=constant), peak hNav1.5 Na+ current inhibition” value ([3]; site_platform s04_p3) of the same compound?
Its value is 1.

What about the “nH (=constant), peak hNav1.5 Na+ current inhibition” value ([3]; site_platform s06_p4) of the same compound?
The value was 1.

And the “nH (=constant), peak hNav1.5 Na+ current inhibition” value ([3]; site_platform s07_p6)?
The value was 1.

What about the “nH, Hill slope, peak hNav1.5 inhibition” value ([3]; site_platform s10_p3) of the same compound?
Its value is 1.

And the “nH, Hill slope, peak hNav1.5 inhibition” value ([3]; site_platform s11_p1)?
Its value is 1.

What about the “Peak hNav1.5 Na+ current inhibition, Mean” value ([3]; site_platform s11_p1, 1.00E-05 mol/L) of the same compound?
The value was 30.0%.

And the “nH, Hill slope, peak hNav1.5 inhibition” value ([3]; site_platform s12_p2)?
Its value is 1.

What about the “nH, Hill slope, peak hNav1.5 inhibition” value ([3]; site_platform s13_p2) of the same compound?
Its value is 1.

What about the “nH, Hill slope, peak hNav1.5 inhibition” value ([3]; site_platform s14_p1) of the same compound?
The value was 1.

What about the “nH, Hill slope, peak hNav1.5 inhibition” value ([3]; site_platform s15_p1) of the same compound?
Its value is 1.

What about the “Peak hNav1.5 Na+ current inhibition, Mean” value ([3]; site_platform s15_p1, 1.00E-05 mol/L) of the same compound?
The value was 52.7%.

What about the “nH, Hill slope, peak hNav1.5 inhibition” value ([3]; site_platform s16_p3) of the same compound?
The value was 1.

What about the “nH, Hill slope, peak hNav1.5 inhibition” value ([3]; site_platform s17_p1) of the same compound?
The value was 1.

What about the “Peak hNav1.5 Na+ current inhibition, Mean” value ([3]; site_platform s17_p1, 1.00E-05 mol/L) of the same compound?
The value was 54.0%.

And the “nH, Hill slope, peak hNav1.5 inhibition” value ([3]; site_platform s18_p1)?
Its value is 1.

What about the “nH, Hill slope, peak hNav1.5 inhibition” value ([3]; site_platform s19_p3) of the same compound?
The value was 1.

Which IC50 [4, 5] does the source give for `COc1ccccc1OCC(O)CN1CCN(CC(=O)Nc2c(C)cccc2C)CC1` (stereo not shown) [ran, ranolazine] here?
The IC50 was 501 µM.

What about the IC50 ([4]; site s06_p4) of the same compound?
The IC50 was 186 µM.

What about the IC50 ([4]; site s11_p1) of the same compound?
The IC50 was 1350 µM.

And the IC50 ([4]; site s14_p1)?
Its IC50 is 245 µM.

What about the IC50 ([4]; site s16_p3) of the same compound?
Its IC50 is 3090 µM.

What about the IC50 ([4]; site s18_p1) of the same compound?
The IC50 was 148 µM.

What about the “Peak hCav1.2 Ca2+ current inhibition, Mean” value ([4]; site s01_p1, 1.00E-04 mol/L) of the same compound?
Its value is 9.0%.

What about the “Peak hCav1.2 Ca2+ current inhibition, Mean” value ([4]; site s01_p1, 3.00E-06 mol/L) of the same compound?
The value was -2.7%.

And the “nH, Hill slope” value [4, 5]?
Its value is 0.74.

What about the “Peak hCav1.2 Ca2+ current inhibition, Mean” value ([4]; site s02_p2, corrected for rundown, 1.00E-04 mol/L) of the same compound?
Its value is 22.9%.

And the “Peak hCav1.2 Ca2+ current inhibition, Mean” value ([4]; site s02_p2, corrected for rundown, 3.00E-06 mol/L)?
Its value is -1.8%.

What about the “nH, Hill slope” value ([4]; site s06_p4) of the same compound?
Its value is 2.00.

What about the “Peak hCav1.2 Ca2+ current inhibition, Mean” value ([4]; site s06_p4, 1.00E-04 mol/L) of the same compound?
The value was 23.0%.

And the “Peak hCav1.2 Ca2+ current inhibition, Mean” value ([4]; site s06_p4, 3.00E-06 mol/L)?
Its value is 12.9%.

What about the “nH, Hill slope” value ([4]; site s11_p1) of the same compound?
The value was 0.32.

And the “Peak hCav1.2 Ca2+ current inhibition, Mean” value ([4]; site s11_p1, 1.00E-04 mol/L)?
Its value is 33.0%.

What about the “Peak hCav1.2 Ca2+ current inhibition, Mean” value ([4]; site s11_p1, 3.00E-06 mol/L) of the same compound?
The value was 14.1%.

What about the “nH, Hill slope” value ([4]; site s14_p1) of the same compound?
The value was 1.42.

What about the “Peak hCav1.2 Ca2+ current inhibition, Mean” value ([4]; site s14_p1, 1.00E-04 mol/L) of the same compound?
Its value is 21.7%.

What about the “Peak hCav1.2 Ca2+ current inhibition, Mean” value ([4]; site s14_p1, 3.00E-06 mol/L) of the same compound?
Its value is -1.7%.

And the “nH, Hill slope” value ([4]; site s16_p3)?
Its value is 0.24.

And the “Peak hCav1.2 Ca2+ current inhibition, Mean” value ([4]; site s16_p3, 1.00E-04 mol/L)?
Its value is 31.8%.

And the “Peak hCav1.2 Ca2+ current inhibition, Mean” value ([4]; site s16_p3, 3.00E-06 mol/L)?
Its value is 16.5%.

What about the “nH, Hill slope” value ([4]; site s18_p1) of the same compound?
The value was 2.00.

And the “Peak hCav1.2 Ca2+ current inhibition, Mean” value ([4]; site s18_p1, 1.00E-04 mol/L)?
The value was 36.1%.

And the “Peak hCav1.2 Ca2+ current inhibition, Mean” value ([4]; site s18_p1, 3.00E-06 mol/L)?
The value was -14.2%.

What about the “TdP Risk Category” value [1] of the same compound?
Its value is “Low”.

Which “nH, Hill slope” value ([4]; site s01_p1) does the source give for `CC(C)(C)c1ccc(C(O)CCCN2CCC(C(O)(c3ccccc3)c3ccccc3)CC2)cc1` (stereo not shown) [ter, terfenadine] here?
The value was 1.62.

What about the “Peak hCav1.2 Ca2+ current inhibition, Mean” value ([4]; site s01_p1, 3.00E-07 mol/L) of the same compound?
The value was 35.6%.

What about the “nH, Hill slope” value [4, 5] of the same compound?
The value was 1.40.

And the “Peak hCav1.2 Ca2+ current inhibition, Mean” value ([4]; site s02_p2, corrected for rundown, 3.00E-07 mol/L)?
The value was 74.7%.

And the “nH, Hill slope” value ([4]; site s04_p3)?
The value was 0.41.

What about the “Peak hCav1.2 Ca2+ current inhibition, Mean” value ([4]; site s04_p3, 3.00E-07 mol/L) of the same compound?
The value was 32.9%.

And the “nH, Hill slope” value ([4]; site s16_p3)?
The value was 0.65.

And the “Peak hCav1.2 Ca2+ current inhibition, Mean” value ([4]; site s16_p3, 3.00E-07 mol/L)?
Its value is 52.1%.

And the “nH, Hill slope” value ([4]; site s18_p1)?
The value was 2.00.

What about the “Peak hCav1.2 Ca2+ current inhibition, Mean” value ([4]; site s18_p1, 3.00E-07 mol/L) of the same compound?
Its value is 56.4%.
